Experimental data from patent US8829014B2, “Thiazole and thiophene analogues, and their use in treating autoimmune diseases and cancers” (Board of Supervisors of Louisiana State University and …, priority 2006, dated 2014).
Marks after values point to notes of the source that are not given here.

Experiments:
AP-1 [1] = assay: AP-1 inhibitor screen: basal AP-1-dependent luciferase expression in HEK/AP-1 cell line; assay type: cell-based; settings: AP1; 1 uM; determined as described in Example 398
How it was run: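 HEK293 cells stably carrying a luciferase reporter driven by three AP-1 elements were plated 24 hr, then given compound at 1.0 μM in 0.3% DMSO for 48 hr, in triplicate. Basal expression without stimulus was read as luminescence (Brite-Glo), normalized to DMSO; dose-response runs repeated two to four times.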

NF-κB [2] = assay: NF-κB inhibitor screen: basal NF-κB-dependent luciferase expression in HEK/NF-κB cell line; assay type: cell-based; settings: 1 uM; determined as described in Example 398; read-out: NFkB inhibition @ 1 uM
How it was run: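 HEK293 cells stably carrying a luciferase reporter under six NF-κB elements were treated with compound, unstimulated, 24 h after plating. Compounds were first tested at 1.0 μM (0.3% DMSO), later at six doses from 10 to 3300 nM, in triplicate. Brite-Glo luciferase signal was normalized to DMSO, or to the lowest dose for dose-response runs.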

[3] = tested on: vascular smooth muscle cells (VSMC); assay: Trypan blue viability count in VSMC; assay type: cell-based; settings: VSMC, 10 μM, 48 h, relative to vehicle
Protocol: (§1) Additional compounds have also been tested for their ability to inhibit both TNF-α-induced NF-κB—expression and PMA-induced AP-1 expression. In both tests, the compound was added for 1 h, then the appropriate inducer was added, and luciferase activity was monitored 24 h later. Values were then normalized to the vehicle control, DMSO. Following the initial luciferase screens, studies were conducted to assess the cytotoxicity of the compounds in normal cells such as VSMC, HUVEC, or HPT cells. Human umbilical vein endothelial cells (HUVEC) represent the normal endothelium, vascular smooth muscle cells (VSMC) were represented by cells from the adult rat aorta, and human proximal tubule (HPT) cells represent the normal proximal tubule in vivo. These cells were grown to near confluency in multi-well plates, and were then treated for 48 h with either vehicle (0.1% DMSO) or 10 μM of each drug candidate. Following treatment, the media from the VSMC and HUVEC incubations were removed, and the amount of lactate dehydrogenase (LDH) released into the medium was determined with a commercial kit. LDH is normally confined to the cytosol, and its release represents “leakiness” of the plasma membrane. LDH activity was expressed as % increase over vehicle-treated cells. In another assay of viability, the treated VSMC and HUVEC were removed by trypsinization and treated with trypan blue, a dye that is taken up only by dead cells. The number of both live and dead cells was counted using an automated cell viability analyzer. The % decrease in numbers of viable cells was determined. Toxicity in the treated HPT cells was determined by the ethidium homodimer (EthHD) uptake assay. EthHD is a fluorescent dye that is excluded from live cells, but is taken up by cells that have lost permeability barriers. Inside the cell, EthHD produces a strong fluorescent signal, which is proportional to the number of dead cells. Results were expressed as a % increase in cell death over vehicle-treated cells. The lead compounds were also tested in two pairs of cell lines from either the skin or prostate, one tumorigenic and one non-tumorigenic, to test for any differences in toxicity or heightened sensitivity in the tumorigenic lines. The cells were treated for 48 h with vehicle (0.1% DMSO) or 10 μM of each drug candidate. Following treatment, the viability of the cells was determined by the MTT assay. In this assay, the MTT dye is converted only in viable cells by intracellular enzymes to a colorimetric product that is quantitated by a microplate reader.

[4] = tested on: cell lines from the skin, one tumorigenic and one non-tumorigenic; assay: MTT viability in skin cell line pair, tumorigenic and non-tumorigenic; assay type: cell-based
Protocol: as §1
(§2) For the results in Table 13, cells were grown to near confluency in multi-well plates, then treated for 48 h with either vehicle (0.1% DMSO) or 10 μM of each drug candidate. Following treatment, the media from the VSMC and HUVEC incubations were removed, and the amount of lactate dehydrogenase (LDH) released into the medium was determined with a commercial kit and expressed as a % increase over vehicle-treated cells. HPT toxicity was determined by the ethidium homodimer (EthHD) uptake assay. Inside the cell, EthHD produces a strong fluorescent signal, which is proportional to the amount of cell death, expressed as a % increase in cell death over vehicle-treated cells. The lead compounds were also tested in two pairs of cell lines from the skin or prostate, one tumorigenic and one non-tumorigenic, to test for differing toxicity or heightened sensitivity in the tumorigenic lines. The cells were treated for 48 h with vehicle (0.1% DMSO) or 10 μM of each drug candidate, and the viability of the cells was determined by the MTT assay, expressed as a % decrease in viability compared to vehicle-treated cells. The in vivo inflammation model measured the % inhibition of rat paw edema induced by carageenan injection.

[5] = tested on: human proximal tubule (HPT) cells; assay: Ethidium homodimer (EthHD) uptake toxicity assay in HPT cells; assay type: cell-based; settings: 10 μM, 48 h, relative to vehicle
Protocol: as §1, §2

[6] = tested on: Human umbilical vein endothelial cells (HUVEC); assay: LDH release cytotoxicity in HUVEC; assay type: cell-based; settings: HUVEC, 10 μM, 48 h, relative to vehicle
Protocol: as §1, §2

[7] = tested on: Human umbilical vein endothelial cells (HUVEC); assay: Trypan blue viability count in HUVEC; assay type: cell-based; settings: HUVEC, 10 μM, 48 h, relative to vehicle
Protocol: as §1

AP-1 [8] = assay: PMA-induced AP-1 luciferase expression in HEK cells; assay type: cell-based; settings: PMA-induced; compound added 1 h before inducer, luciferase 24 h later; normalized to DMSO vehicle
NF-κB [9] = assay: TNF-α-induced NF-κB-dependent luciferase expression in HEK cells; assay type: cell-based; set-up: NF-κB % inhibition: concentration or dose not given beside the values; settings: TNF-α-induced; compound added 1 h before inducer, luciferase 24 h later; normalized to DMSO vehicle
[10] = tested on: vascular smooth muscle cells (VSMC); assay: LDH release cytotoxicity in VSMC; assay type: cell-based; settings: VSMC, 10 μM, 48 h, relative to vehicle
Protocol: as §1, §2

Compound | melting point [°C] | inhibition at 1 µM (AP-1 [1]) [%] | inhibition at 1 µM (NF-κB [2]) [%] | Viable Cells % Decrease VSMC [3] | Viability (MTT) % Decrease HaCaT [4] | Viability (MTT) % Decrease SRB12-p9 [4] | Cell Death (EthHD) % Increase HPT [5] | LDH release % Increase HUVEC [6] | Viable Cells % Decrease HUVEC [7] | AP-1 % inhibition (AP-1 [8]) | NF-κB % inhibition (NF-κB [9]) | LDH release % Increase VSMC [10]
CNc1nc(-c2ccccc2)c(-c2nc3ccccc3c(=O)n2-c2cccc(C)c2)s1 [Example 186, 2-(2-methylamino-4-phenyl-thiazol-5-yl)-3-m-tolyl-3H-quinazolin-4-one] | 186 to 187 | 10 | 23 |  |  |  |  |  |  |  |  | 
Cc1cccc(-n2c(-c3sc(NC(=O)c4ccccc4)nc3-c3ccccc3)nc3ccccc3c2=O)c1 [Example 188, N-[5-(4-Oxo-3-m-tolyl-3,4-dihydro-quinazolin-2-yl)-4-phenyl-thiazole-2-yl]benzamide] | > 275 | 63 | 42 |  |  |  |  |  |  |  |  | 
Cc1ccc(-n2c(-c3sc(Nc4ccccc4)nc3-c3ccccc3)nc3ccccc3c2=O)cc1 [Example 196, 3-p-Tolyl-2-(4-phenyl-2-phenylamino-thiazol-5-yl)-3H-quinazolin-4-one] | 225 to 228 | 10 | 38 |  |  |  |  |  |  |  |  | 
COc1cccc(-n2c(-c3sc(NC(=O)c4ccccc4)nc3-c3ccccc3)nc3ccccc3c2=O)c1 [Example 214, N-[5-(4-Oxo-3-(3-methoxyphenyl)-3,4-dihydro-quinazolin-2-yl)-4-phenyl-thiazole-2-yl]benzamide] | 195 to 196 | 30 | 34 |  |  |  |  |  |  |  |  | 
Cc1nc(Nc2ccccc2)sc1-c1nc2ccccc2c(=O)n1-c1ccccc1Cl [Example 229, 2-(4-Methyl-2-phenylamino-thiazol-5-yl)-3-(2-chloro-phenyl)-3H-quinazolin-4-one] | 228 to 229 | 21 | 6 |  |  |  |  |  |  |  |  | 
COC(=O)Nc1nc(-c2ccccc2)c(-c2nc3ccccc3c(=O)n2-c2ccccc2Cl)s1 [Example 232, [5-(4-Oxo-3-(2-chloro-phenyl)-3,4-dihydro-quinazolin-2-yl)-4-phenyl-thiazol-2-yl]-carbamic acid methyl ester] | > 275 | 67 | 55 |  |  |  |  |  |  |  |  | 
Cc1ccc(C(=O)Nc2nc(-c3ccccc3)c(-c3nc4ccccc4c(=O)n3-c3ccc(Cl)cc3)s2)cc1 [Example 254, 4-Methyl-N-[5-(4-oxo-3-(4-Chloro-phenyl)-3,4-dihydroquinazolin-2-yl)-4-phenyl-thiazol-2-yl]-benzamide] | > 275 | 2 | 0 |  |  |  |  |  |  |  |  | 
CC(=O)c1ccc(-n2c(-c3sc(Nc4ccccc4)nc3C)nc3ccccc3c2=O)cc1 [Example 262, 2-(4-Methyl-2-phenylamino-thiazol-5-yl)-3-(4-acetyl-phenyl)-3H-quinazolin-4-one] | 271 to 273 | 7 | 15 |  |  |  |  |  |  |  |  | 
CNc1nc(-c2ccccc2)c(-c2nc3ccccc3c(=O)n2-c2ccc(C(C)=O)cc2)s1 [Example 266, 2-(2-Methylamino-4-phenyl-thiazol-5-yl)-3-(4-acetyl-phenyl)-3H-quinazolin-4-one] | 239 to 240 | 15 | 4 |  |  |  |  |  |  |  |  | 
CC(=O)c1ccc(-n2c(-c3sc(Nc4ccccc4)nc3-c3ccccc3)nc3ccccc3c2=O)cc1 [Example 267, 3-(4-acetyl-phenyl)-2-(4-phenyl-2-phenylamino-thiazol-5-yl)-3H-quinazolin-4-one] | 223 to 225 | 19 | 43 |  |  |  |  |  |  |  |  | 
CC(=O)c1ccc(-n2c(-c3sc(NC(=O)c4ccccc4)nc3-c3ccccc3)nc3ccccc3c2=O)cc1 [Example 268, N-[5-(4-Oxo-3-(4-acetyl-phenyl)-3,4-dihydro-quinazolin-2-yl)-4-phenyl-thiazole-2-yl]benzamide] | 250 to 252 | 44 | 18 |  |  |  |  |  |  |  |  | 
CC(=O)c1ccc(-n2c(-c3sc(NC(=O)c4ccc(C)cc4)nc3-c3ccccc3)nc3ccccc3c2=O)cc1 [Example 269, 4-Methyl-N-[5-(4-oxo-3-(4-acetyl-phenyl)-3,4-dihydroquinazolin-2-yl)-4-phenyl-thiazol-2-yl]-benzamide] | 266 to 267 | 1 | 27 |  |  |  |  |  |  |  |  | 
CNc1nc(C)c(-c2nc3ccccc3c(=O)n2-c2ccccc2C)s1 [PMCR19] |  |  |  | 29# % | 6% | 21% | 63# % | 14% | 20% | 67** % | 18% | 4%
Cc1ccccc1-n1c(-c2sc(Nc3ccccc3)nc2C)nc2ccccc2c1=O [PMCR20] |  |  |  | 34# % | 6% | 14% | 109# % | 17% | 28# % | 73** % | 21% | 9%
CCOC(=O)Nc1nc(-c2ccccc2)c(-c2nc3ccccc3c(=O)n2-c2ccccc2C)s1 [PMCR25] |  |  |  | 56# % | −5% | 28# % | 34# % | 59# % | 40# % | 52** % | 23% | 78# %
Cc1cccc(-n2c(-c3sc(NC(=O)c4ccccc4)nc3-c3ccccc3)nc3ccccc3c2=O)c1 [PMCR45] |  |  |  | 67# % | 19% | 20% | 49# % | 123# % | 41# % | 63** % | 42% | 116# %
CNc1nc(-c2ccccc2)c(-c2nc3ccccc3c(=O)n2-c2ccccc2OC)s1 [PMCR75] |  |  |  | 70# % | 46# % | 61# % | 4% | 15% | 41# % | 90** % | 61** % | 31# %
